# Key:
# human LPA1 = molecular target: T1, human LPA1 (Homo sapiens, UniProt Q92633); assay: LPA1 calcium flux assay (HLPA1 Ca Flux); format: cell-based; details: Human LPA1 expressing CHO cells, stimulated with 10 nM LPA
# T1 construct: the full-length cDNA for human LPA1 was obtained by PCR of the reverse transcription reaction; expressed in transfected cells
# Protocol: A 1.1 kb cDNA encoding the human LPA1 receptor was cloned from human lung. Human lung RNA (Clontech Laboratories, Inc. USA) was reverse transcribed using the RETROscript kit (Ambion, Inc.) and the full-length cDNA for human LPA1 was obtained by PCR of the reverse transcription reaction. The nucleotide sequence of the cloned human LPA1 was determined by sequencing and confirmed to be identical to the published human LPA1 sequence (An et al. Biochem. Biophys. Res. Commun. 231:619 (1997). The cDNA was cloned into the pcDNAS/FRT expression plasmid and transfected in CHO cells using lipofectamine 2000 (Invitrogen Corp., USA). Clones stably expressing human LPA1 were selected using hygromycin and identified as cells that show Ca-influx in response to LPA.
# (§1) Human LPA1 or LPA3 expressing CHO cells are seeded at 20,000-45,000 cells per well in a 96-well poly-D-lysine coated plate one or two days before the assay. Prior to the assay, the cells are washed once with PBS and then cultured in serum-free media overnight. On the day of the assay, a calcium indicator dye (Calcium 4, Molecular Devices) in assay buffer (HBSS with Ca^2+ and Mg^2+ and containing 20 mM Hepes and 0.3% fatty-acid free human serum albumin) is added to each well and incubation continued for 1 hour at 37° C. 10 μl of test compounds in 2.5% DMSO are added to the cells and incubation continued at room temperature for 30 minutes. Cells are the stimulated by the addition of 10 nM LPA and intracellular Ca^2+ measured using the Flexstation 3 (Molecular Devices). IC50s are determined using Graphpad prism analysis of drug titration curves.
# human LPA3 = molecular target: T2, human LPA3 (Homo sapiens, UniProt Q9UBY5); assay: LPA3 calcium flux assay; format: cell-based; details: Human LPA3 expressing CHO cells, stimulated with 10 nM LPA; read-out: HLPA3 Ca Flux IC50
# T2 construct: The full-length cDNA fragment for human LPA3 was obtained by PCR from the vector; expressed in transfected cells; cDNA from the Missouri S&T cDNA Resource Center
# T2 sequence (Q9UBY5 1-353): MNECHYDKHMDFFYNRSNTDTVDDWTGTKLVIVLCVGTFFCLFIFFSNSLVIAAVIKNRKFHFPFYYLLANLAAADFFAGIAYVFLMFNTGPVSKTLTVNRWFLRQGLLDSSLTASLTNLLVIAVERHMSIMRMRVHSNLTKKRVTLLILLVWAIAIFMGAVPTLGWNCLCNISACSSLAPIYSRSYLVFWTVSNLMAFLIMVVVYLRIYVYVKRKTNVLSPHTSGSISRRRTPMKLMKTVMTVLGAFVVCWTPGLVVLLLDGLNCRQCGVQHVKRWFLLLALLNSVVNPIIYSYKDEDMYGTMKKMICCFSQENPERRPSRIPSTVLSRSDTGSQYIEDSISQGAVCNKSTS
# Protocol: A vector containing the human LPA3 receptor cDNA was obtained from the Missouri S&T cDNA Resource Center (www.cdna.org). The full-length cDNA fragment for human LPA3 was obtained by PCR from the vector. The nucleotide sequence of the cloned human LPA3 was determined by sequencing and confirmed to be identical to the published human LPA3 sequence (NCBI accession number NM 012152). The cDNA was cloned into the pcDNA5/FRT expression plasmid and transfected in CHO cells using lipofectamine 2000 (Invitrogen Corp., USA). Clones stably expressing human LPA3 were selected using hygromycin and identified as cells that show Ca-influx in response to LPA.
# as §1
# T1 sequence (Q92633 whole entry): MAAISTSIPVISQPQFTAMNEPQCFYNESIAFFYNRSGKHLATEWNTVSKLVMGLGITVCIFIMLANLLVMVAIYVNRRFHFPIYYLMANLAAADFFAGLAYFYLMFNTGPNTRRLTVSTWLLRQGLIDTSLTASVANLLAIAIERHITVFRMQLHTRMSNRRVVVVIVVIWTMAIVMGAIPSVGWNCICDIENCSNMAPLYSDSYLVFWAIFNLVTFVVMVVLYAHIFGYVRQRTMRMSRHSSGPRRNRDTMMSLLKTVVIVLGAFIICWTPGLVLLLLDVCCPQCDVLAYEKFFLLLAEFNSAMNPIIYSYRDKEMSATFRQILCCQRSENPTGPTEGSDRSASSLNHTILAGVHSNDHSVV
IC50 (human LPA1),IC50 (human LPA3),Compound
< 0.3 µM,1 to 50 µM,"Cc1noc(-c2ccc(Cc3cccc(C(=O)O)c3)cc2)c1NC(=O)OC(C)c1ccccc1Cl (stereo not drawn) [Compound 1-5, 3-(4-{4-[1-(2-Chloro-phenyl)-ethoxycarbonylamino]-3-methyl-isoxazol-5-yl}-benzyl)-benzoic acid]"
0.3 to 1 µM,1 to 50 µM,"COc1ccc(CC(=O)O)cc1Cc1ccc(-c2onc(C)c2NC(=O)OC(C)c2ccccc2Cl)cc1 (stereo not drawn) [Compound 1-7, [3-(4-{4-[1-(2-Chloro-phenyl)-ethoxycarbonylamino]-3-methyl-isoxazol-5-yl}-benzyl)-4-methoxy-phenyl]-acetic acid]"
< 0.3 µM,1 to 50 µM,"Cc1noc(-c2ccc(Cn3cc(C(=O)O)cn3)cc2)c1NC(=O)OC(C)c1ccccc1Cl (stereo not drawn) [Compound 1-9, 1-(4-{4-[1-(2-Chloro-phenyl)-ethoxycarbonylamino]-3-methyl-isoxazol-5-yl}-benzyl)-1H-pyrazole-4-carboxylic acid]"
< 0.3 µM,1 to 50 µM,"Cc1noc(-c2ccc(COc3cccc(C(=O)O)c3)cc2)c1NC(=O)OC(C)c1ccccc1Cl (stereo not drawn) [Compound 1-12, 3-(4-{4-[1-(2-Chloro-phenyl)-ethoxycarbonylamino]-3-methyl-isoxazol-5-yl}-benzyloxy)-benzoic acid]"
< 0.3 µM,1 to 50 µM,"Cc1noc(-c2ccc(Cc3ccc(C(=O)O)s3)cc2)c1NC(=O)OC(C)c1ccccc1Cl (stereo not drawn) [Compound 1-15, 5-(4-{4-[1-(2-Chloro-phenyl)-ethoxycarbonylamino]-3-methyl-isoxazol-5-yl}-benzyl)-thiophene-2-carboxylic acid]"
< 0.3 µM,1 to 50 µM,"Cc1noc(-c2ccc(CSc3ccc(CC(=O)O)cc3)cc2)c1NC(=O)OC(C)c1ccccc1Cl (stereo not drawn) [Compound 1-17, [4-(4-{4-[1-(2-Chloro-phenyl)-ethoxycarbonylamino]-3-methyl-isoxazol-5-yl}-benzylsulfanyl)-phenyl]-acetic acid]"
< 0.3 µM,1 to 50 µM,"Cc1noc(-c2ccc(CSc3ccccc3CC(=O)O)cc2)c1NC(=O)OC(C)c1ccccc1Cl (stereo not drawn) [Compound 1-19, [2-(4-{4-[1-(2-Chloro-phenyl)-ethoxycarbonylamino]-3-methyl-isoxazol-5-yl}-benzylsulfanyl)-phenyl]acetic acid]"
< 0.3 µM,1 to 50 µM,"Cc1noc(-c2ccc(Cc3ccc(CC(=O)O)cc3)cc2)c1NC(=O)OC(C)c1ccccc1Cl (stereo not drawn) [Compound 1-20, [4-(4-{4-[1-(2-Chloro-phenyl)-ethoxycarbonylamino]-3-methyl-isoxazol-5-yl}-benzyl)-phenyl]-acetic acid]"
< 0.3 µM,1 to 50 µM,"Cc1noc(-c2ccc(Cc3cccc(CC(=O)O)c3)cc2)c1NC(=O)OC(C)c1ccccc1Cl (stereo not drawn) [Compound 1-21, [3-(4-{4-[1-(2-Chloro-phenyl)-ethoxycarbonylamino]-3-methyl-isoxazol-5-yl}-benzyl)-phenyl]acetic acid]"
< 0.3 µM,1 to 50 µM,"Cc1noc(-c2ccc(-c3ccc(CC(=O)O)cc3)cc2)c1NC(=O)OC(C)c1ccccc1C(F)(F)F (stereo not drawn) [Compound 1-23, (4′-{3-Methyl-4-[1-(2-trifluoromethyl-phenyl)-ethoxycarbonylamino]-isoxazol-5-yl}-biphenyl-4-yl)-acetic acid]"
0.3 to 1 µM,1 to 50 µM,"Cc1noc(-c2ccc(-c3ccc(CC(=O)O)cc3)cc2)c1NC(=O)OC(C)c1cccc(C(F)(F)F)c1 (stereo not drawn) [Compound 1-24, (4′-{3-Methyl-4-[1-(3-trifluoromethyl-phenyl)-ethoxycarbonylamino]-isoxazol-5-yl}-biphenyl-4-yl)-acetic acid]"
< 0.3 µM,1 to 50 µM,"Cc1noc(-c2ccc(-c3ccc(CC(=O)O)cc3)cc2)c1NC(=O)OC(C)c1ccc(Cl)cc1Cl (stereo not drawn) [Compound 1-25, (4′-{4-[1-(2,4-Dichloro-phenyl)-ethoxycarbonylamino]-3-methyl-isoxazol-5-yl}-biphenyl-4-yl)-acetic acid]"
< 0.3 µM,1 to 50 µM,"Cc1noc(-c2ccc(-c3ccc(CC(=O)O)cc3)cc2)c1NC(=O)OC(C)c1ccccc1F (stereo not drawn) [Compound 1-26, (4′-{4-[1-(2-Fluoro-phenyl)-ethoxycarbonylamino]-3-methyl-isoxazol-5-yl}-biphenyl-4-yl)-acetic acid]"
< 0.3 µM,1 to 50 µM,"Cc1noc(-c2ccc(-c3ccc(CC(=O)O)cc3)cc2)c1NC(=O)OC(C)c1cccc(Br)c1 (stereo not drawn) [Compound 1-27, (4′-{4-[1-(3-Bromo-phenyl)-ethoxycarbonylamino]-3-methyl-isoxazol-5-yl}-biphenyl-4-yl)-acetic acid]"
< 0.3 µM,> 50 µM,"COc1ccccc1C(C)OC(=O)Nc1c(C)noc1-c1ccc(-c2ccc(CC(=O)O)cc2)cc1 (stereo not drawn) [Compound 1-28, (4′-{4-[1-(2-Methoxy-phenyl)-ethoxycarbonylamino]-3-methyl-isoxazol-5-yl}-biphenyl-4-yl)-acetic acid]"
0.3 to 1 µM,1 to 50 µM,"COc1ccc(CC(=O)O)cc1-c1cccc(-c2onc(C)c2NC(=O)OC(C)c2ccccc2Cl)c1 (stereo not drawn) [Compound 1-30, (3′-{4-[1-(2-Chloro-phenyl)-ethoxycarbonylamino]-3-methyl-isoxazol-5-yl}-6-methoxy-biphenyl-3-yl)-acetic acid]"
1 to 50 µM,1 to 50 µM,"Cc1noc(-c2cccc(-c3cccc(C(=O)O)c3)c2)c1NC(=O)OC(C)c1ccccc1Cl (stereo not drawn) [Compound 1-31, 3′-{4-[1-(2-Chloro-phenyl)-ethoxycarbonylamino]-3-methyl-isoxazol-5-yl}-biphenyl-3-carboxylic acid]"
< 0.3 µM,> 50 µM,"Cc1noc(-c2cccc(C3=CCC(C(=O)O)CC3)c2)c1NC(=O)OC(C)c1ccccc1Cl (stereo not drawn) [Compound 1-45, 4-(3-{4-[1-(2-Chloro-phenyl)-ethoxycarbonylamino]-3-methyl-isoxazol-5-yl}-phenyl)-cyclohex-3-enecarboxylic acid]"
< 0.3 µM,> 50 µM,Cc1noc(-c2ccc(-c3ccc(CC(=O)O)cc3)nc2)c1NC(=O)OC(C)c1ccccc1F (stereo not drawn) [Compound 1-48]
0.3 to 1 µM,1 to 50 µM,"COc1ccc(CC(=O)O)cc1-c1ccc(-c2onc(C)c2NC(=O)OC(C)c2ccccc2Cl)cc1 (stereo not drawn) [Compound 1-49, (4′-{4-[1-(2-Chloro-phenyl)-ethoxycarbonylamino]-3-methyl-isoxazol-5-yl}-6-methoxy-biphenyl-3-yl)-acetic acid]"
< 0.3 µM,1 to 50 µM,"Cc1noc(-c2ccc(-c3cc(C(=O)O)ccn3)cc2)c1NC(=O)OC(C)c1ccccc1Cl (stereo not drawn) [Compound 1-50, 2-(4-{4-[1-(2-Chloro-phenyl)-ethoxycarbonylamino]-3-methyl-isoxazol-5-yl}-phenyl)-isonicotinic acid]"
< 0.3 µM,1 to 50 µM,"Cc1noc(-c2ccc(-c3ccc(C(=O)O)cc3)cc2)c1NC(=O)OC(C)c1ccccc1Cl (stereo not drawn) [Compound 1-51, 4′-{4-[1-(2-Chloro-phenyl)-ethoxycarbonylamino]-3-methyl-isoxazol-5-yl}-biphenyl-4-carboxylic acid]"
< 0.3 µM,1 to 50 µM,"Cc1noc(-c2ccc(-c3cccc(C(=O)O)n3)cc2)c1NC(=O)OC(C)c1ccccc1Cl (stereo not drawn) [Compound 1-53, 6-(4-{4-[1-(2-Chloro-phenyl)-ethoxycarbonylamino]-3-methyl-isoxazol-5-yl}-phenyl)-pyridine-2-carboxylic acid]"
< 0.3 µM,1 to 50 µM,"Cc1noc(-c2ccc(-c3ccc(C(=O)O)cn3)cc2)c1NC(=O)OC(C)c1ccccc1Cl (stereo not drawn) [Compound 1-54, 6-(4-{4-[1-(2-Chloro-phenyl)-ethoxycarbonylamino]-3-methyl-isoxazol-5-yl}-phenyl)-nicotinic acid]"
